According to patent US20220105081A1 (priority 2020, published 2022):
“Also recorded” adds a separate entry of the source.

Assays:
morphine-dependent rats = assay: Opiate withdrawal signs in morphine-dependent rats
[1] = biological target: T1, ADRA1B (Alpha 1B adrenergic receptor) (Homo sapiens, UniProt P35368); assay: DiscoverX GPCR Max Panel screen; format: cell-based; conditions: VDM-001 at 30 μM; Assay Mode Antagonist
T1 sequence (P35368 1-520): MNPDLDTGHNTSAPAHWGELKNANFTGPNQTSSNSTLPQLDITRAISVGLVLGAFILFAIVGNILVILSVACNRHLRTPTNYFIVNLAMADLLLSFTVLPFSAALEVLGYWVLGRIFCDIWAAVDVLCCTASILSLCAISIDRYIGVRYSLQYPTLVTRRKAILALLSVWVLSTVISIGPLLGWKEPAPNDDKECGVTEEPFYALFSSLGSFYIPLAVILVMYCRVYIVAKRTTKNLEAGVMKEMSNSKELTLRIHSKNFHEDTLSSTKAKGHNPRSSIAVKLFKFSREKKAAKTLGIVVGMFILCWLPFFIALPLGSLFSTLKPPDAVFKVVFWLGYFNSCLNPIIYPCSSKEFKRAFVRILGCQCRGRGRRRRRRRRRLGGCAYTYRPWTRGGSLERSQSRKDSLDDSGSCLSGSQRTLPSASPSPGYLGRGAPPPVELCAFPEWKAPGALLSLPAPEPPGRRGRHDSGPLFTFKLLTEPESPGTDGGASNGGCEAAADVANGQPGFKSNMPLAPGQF
Protocol: (§1) In Example 2, DiscoverX platform screening (GPCR Max Panel) of VDM-001(composition of formula I)) at a concentration of 30 μM (the IC50 for VDM-001 from the GTPgS studies) was conducted to confirm the data from the GTPgS study and to determine broad selectivity of over 336 protein targets. MOR antagonism was confirmed (87% activity) along with other targets with >50%. Overall 13 proteins were engaged by VDM-001 with greater than 50% activity.

[2] = biological target: T2, ADRA2B (Alpha 2B adrenergic receptor) (Homo sapiens, UniProt P18089); assay: DiscoverX GPCR Max Panel screen; format: cell-based; conditions: VDM-001 at 30 μM; Assay Mode Antagonist
T2 sequence (P18089 1-450): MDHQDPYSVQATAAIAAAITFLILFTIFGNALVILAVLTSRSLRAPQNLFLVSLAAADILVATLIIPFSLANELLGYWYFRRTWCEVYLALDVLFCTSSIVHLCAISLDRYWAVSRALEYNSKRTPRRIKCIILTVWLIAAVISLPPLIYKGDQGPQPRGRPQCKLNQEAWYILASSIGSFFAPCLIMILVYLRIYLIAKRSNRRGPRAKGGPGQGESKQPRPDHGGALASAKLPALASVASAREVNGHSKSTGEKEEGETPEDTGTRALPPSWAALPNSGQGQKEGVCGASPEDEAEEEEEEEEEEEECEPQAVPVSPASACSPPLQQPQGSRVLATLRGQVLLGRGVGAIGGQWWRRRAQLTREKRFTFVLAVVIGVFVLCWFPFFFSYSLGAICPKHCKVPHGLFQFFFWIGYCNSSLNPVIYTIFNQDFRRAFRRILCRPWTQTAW
Protocol: as §1

[3] = biological target: T3, ADRA2C (Adrenergic receptor alpha 2C) (Homo sapiens, UniProt P18825); assay: DiscoverX GPCR Max Panel screen; format: cell-based; conditions: VDM-001 at 30 μM; Assay Mode Antagonist
T3 sequence (P18825 1-462): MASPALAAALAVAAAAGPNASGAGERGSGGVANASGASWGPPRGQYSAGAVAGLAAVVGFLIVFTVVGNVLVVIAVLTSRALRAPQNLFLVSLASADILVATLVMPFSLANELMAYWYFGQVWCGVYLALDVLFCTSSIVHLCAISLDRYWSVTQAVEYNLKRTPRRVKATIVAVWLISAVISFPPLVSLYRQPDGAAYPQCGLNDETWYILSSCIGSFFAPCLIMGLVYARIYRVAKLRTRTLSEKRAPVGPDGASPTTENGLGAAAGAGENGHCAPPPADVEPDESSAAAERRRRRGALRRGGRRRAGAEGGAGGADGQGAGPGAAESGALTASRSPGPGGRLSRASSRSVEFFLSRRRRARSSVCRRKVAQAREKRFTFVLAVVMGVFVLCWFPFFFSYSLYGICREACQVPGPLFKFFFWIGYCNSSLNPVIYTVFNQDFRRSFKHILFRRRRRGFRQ
Protocol: as §1

[4] = biological target: T4, CHRM1 (Cholinergic Muscarinic Receptor 1) (Homo sapiens, UniProt P11229); assay: DiscoverX GPCR Max Panel screen; format: cell-based; conditions: VDM-001 at 30 μM; Assay Mode Antagonist
T4 sequence (P11229 1-460): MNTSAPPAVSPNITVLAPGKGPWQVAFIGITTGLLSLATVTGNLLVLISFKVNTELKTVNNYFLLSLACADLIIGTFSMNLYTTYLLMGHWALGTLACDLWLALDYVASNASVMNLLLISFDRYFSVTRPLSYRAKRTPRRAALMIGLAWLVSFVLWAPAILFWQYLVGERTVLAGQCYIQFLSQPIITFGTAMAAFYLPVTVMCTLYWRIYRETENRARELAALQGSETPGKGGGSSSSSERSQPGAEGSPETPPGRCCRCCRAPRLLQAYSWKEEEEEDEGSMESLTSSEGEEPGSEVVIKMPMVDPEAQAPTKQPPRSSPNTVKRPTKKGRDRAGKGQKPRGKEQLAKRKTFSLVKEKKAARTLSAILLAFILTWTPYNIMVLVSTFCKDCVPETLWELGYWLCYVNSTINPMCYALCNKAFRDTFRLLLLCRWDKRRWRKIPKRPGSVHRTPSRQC
Protocol: as §1

[5] = biological target: CHRM3 (Cholinergic Muscarinic Receptor 3) (Homo sapiens, UniProt P20309); assay: DiscoverX GPCR Max Panel screen; format: cell-based; conditions: VDM-001 at 30 μM; Assay Mode Antagonist
Chain of CHRM3 (Cholinergic Muscarinic Receptor 3) (P20309 whole entry): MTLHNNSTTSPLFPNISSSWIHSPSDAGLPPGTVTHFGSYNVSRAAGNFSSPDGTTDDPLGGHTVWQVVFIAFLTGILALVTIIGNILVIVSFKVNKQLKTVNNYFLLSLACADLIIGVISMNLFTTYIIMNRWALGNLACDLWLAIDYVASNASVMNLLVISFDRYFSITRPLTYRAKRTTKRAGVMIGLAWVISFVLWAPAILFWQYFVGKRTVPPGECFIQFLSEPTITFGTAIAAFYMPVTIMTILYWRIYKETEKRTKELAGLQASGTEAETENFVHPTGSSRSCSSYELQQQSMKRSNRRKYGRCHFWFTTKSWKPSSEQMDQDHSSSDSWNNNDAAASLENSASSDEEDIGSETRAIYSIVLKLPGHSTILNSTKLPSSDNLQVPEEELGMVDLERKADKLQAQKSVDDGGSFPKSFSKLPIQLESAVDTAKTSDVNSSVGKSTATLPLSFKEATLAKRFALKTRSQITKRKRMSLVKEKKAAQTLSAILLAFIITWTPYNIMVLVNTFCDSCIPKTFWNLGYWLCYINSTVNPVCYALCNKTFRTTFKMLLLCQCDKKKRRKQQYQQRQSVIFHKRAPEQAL
Protocol: as §1

[6] = biological target: T5, CHRM4 (Cholinergic Muscarinic Receptor 4) (Homo sapiens, UniProt P08173); assay: DiscoverX GPCR Max Panel screen; format: cell-based; conditions: VDM-001 at 30 μM; Assay Mode Antagonist
T5 sequence (P08173 1-479): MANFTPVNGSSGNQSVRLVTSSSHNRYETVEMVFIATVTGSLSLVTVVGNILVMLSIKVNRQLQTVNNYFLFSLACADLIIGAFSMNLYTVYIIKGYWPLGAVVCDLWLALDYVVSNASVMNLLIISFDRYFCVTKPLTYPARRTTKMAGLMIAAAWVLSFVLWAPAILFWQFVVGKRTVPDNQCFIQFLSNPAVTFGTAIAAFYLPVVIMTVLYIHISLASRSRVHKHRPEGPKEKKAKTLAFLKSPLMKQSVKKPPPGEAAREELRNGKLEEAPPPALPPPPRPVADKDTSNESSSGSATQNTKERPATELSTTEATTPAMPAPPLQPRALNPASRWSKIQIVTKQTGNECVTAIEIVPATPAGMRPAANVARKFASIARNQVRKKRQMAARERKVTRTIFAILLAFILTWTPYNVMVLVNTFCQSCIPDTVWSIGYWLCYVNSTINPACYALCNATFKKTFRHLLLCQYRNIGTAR
Protocol: as §1

[7] = biological target: T6, CHRM5 (Cholinergic Muscarinic Receptor 5) (Homo sapiens, UniProt P08912); assay: DiscoverX GPCR Max Panel screen; format: cell-based; conditions: VDM-001 at 30 μM; Assay Mode Antagonist
T6 sequence (P08912 1-532): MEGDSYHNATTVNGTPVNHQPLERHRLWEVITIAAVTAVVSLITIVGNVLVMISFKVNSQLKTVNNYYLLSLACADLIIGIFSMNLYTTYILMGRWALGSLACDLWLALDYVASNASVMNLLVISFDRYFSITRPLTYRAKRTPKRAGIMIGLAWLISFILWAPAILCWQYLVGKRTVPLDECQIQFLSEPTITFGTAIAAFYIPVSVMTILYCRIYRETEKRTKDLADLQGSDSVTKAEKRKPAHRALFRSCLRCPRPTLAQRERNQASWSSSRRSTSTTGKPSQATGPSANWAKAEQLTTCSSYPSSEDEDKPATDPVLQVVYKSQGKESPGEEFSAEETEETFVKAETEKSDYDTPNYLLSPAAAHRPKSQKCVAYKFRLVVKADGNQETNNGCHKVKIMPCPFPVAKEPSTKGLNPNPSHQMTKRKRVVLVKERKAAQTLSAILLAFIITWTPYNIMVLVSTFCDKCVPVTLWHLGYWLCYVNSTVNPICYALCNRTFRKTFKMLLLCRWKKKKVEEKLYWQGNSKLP
Protocol: as §1

[8] = biological target: T7, DRD4 (Dopamine D4 receptor) (Homo sapiens, UniProt P21917); assay: DiscoverX GPCR Max Panel screen; format: cell-based; conditions: VDM-001 at 30 μM; Assay Mode Antagonist
T7 sequence (P21917 1-419): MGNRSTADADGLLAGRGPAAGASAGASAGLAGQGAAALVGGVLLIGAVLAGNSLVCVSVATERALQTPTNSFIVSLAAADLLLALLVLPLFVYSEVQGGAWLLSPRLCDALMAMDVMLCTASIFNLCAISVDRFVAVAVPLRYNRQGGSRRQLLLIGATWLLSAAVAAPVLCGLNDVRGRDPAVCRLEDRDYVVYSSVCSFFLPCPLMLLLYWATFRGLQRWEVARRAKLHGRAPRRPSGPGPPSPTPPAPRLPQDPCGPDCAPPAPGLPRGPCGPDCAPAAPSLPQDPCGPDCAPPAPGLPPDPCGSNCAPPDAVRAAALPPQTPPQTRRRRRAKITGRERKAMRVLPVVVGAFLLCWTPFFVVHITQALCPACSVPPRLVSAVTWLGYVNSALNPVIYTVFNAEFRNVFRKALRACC
Protocol: as §1

[9] = biological target: HRH1 (Histamine H1 receptor) (Homo sapiens, UniProt P35367); assay: DiscoverX GPCR Max Panel screen; format: cell-based; conditions: VDM-001 at 30 μM; Assay Mode Antagonist
Chain of HRH1 (Histamine H1 receptor) (P35367 whole entry): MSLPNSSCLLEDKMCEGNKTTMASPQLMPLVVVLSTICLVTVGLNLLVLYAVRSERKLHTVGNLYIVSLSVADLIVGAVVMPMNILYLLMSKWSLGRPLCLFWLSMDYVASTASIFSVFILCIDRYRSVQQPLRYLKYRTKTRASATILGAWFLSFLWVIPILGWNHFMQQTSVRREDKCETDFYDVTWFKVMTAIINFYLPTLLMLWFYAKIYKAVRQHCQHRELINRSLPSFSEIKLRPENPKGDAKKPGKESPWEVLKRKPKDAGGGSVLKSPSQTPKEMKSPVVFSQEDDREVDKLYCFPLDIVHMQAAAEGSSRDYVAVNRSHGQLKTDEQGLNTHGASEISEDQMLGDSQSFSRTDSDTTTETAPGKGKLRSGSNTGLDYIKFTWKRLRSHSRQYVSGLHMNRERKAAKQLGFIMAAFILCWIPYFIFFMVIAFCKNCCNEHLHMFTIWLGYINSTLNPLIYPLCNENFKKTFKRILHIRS
Protocol: as §1

[10] = biological target: T8, HTR1A (Serotonin 1A receptor) (Homo sapiens, UniProt P08908); assay: DiscoverX GPCR Max Panel screen; format: cell-based; conditions: VDM-001 at 30 μM; Assay Mode Antagonist
T8 sequence (P08908 1-422): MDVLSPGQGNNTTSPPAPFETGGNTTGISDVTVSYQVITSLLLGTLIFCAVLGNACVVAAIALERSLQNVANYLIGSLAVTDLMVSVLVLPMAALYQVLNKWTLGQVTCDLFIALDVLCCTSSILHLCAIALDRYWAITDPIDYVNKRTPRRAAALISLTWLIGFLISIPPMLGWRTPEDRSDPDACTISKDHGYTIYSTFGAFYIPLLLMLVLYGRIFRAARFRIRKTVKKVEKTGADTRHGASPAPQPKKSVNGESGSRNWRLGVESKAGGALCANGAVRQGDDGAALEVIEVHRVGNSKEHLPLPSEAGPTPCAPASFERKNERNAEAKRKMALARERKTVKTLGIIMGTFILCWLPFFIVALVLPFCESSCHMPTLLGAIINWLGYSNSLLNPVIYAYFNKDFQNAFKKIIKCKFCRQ
Protocol: as §1

[11] = biological target: HTR1B (Serotonin 1B receptor) (Homo sapiens, UniProt P28222); assay: DiscoverX GPCR Max Panel screen; format: cell-based; conditions: VDM-001 at 30 μM; Assay Mode Antagonist
Chain of HTR1B (Serotonin 1B receptor) (P28222 whole entry): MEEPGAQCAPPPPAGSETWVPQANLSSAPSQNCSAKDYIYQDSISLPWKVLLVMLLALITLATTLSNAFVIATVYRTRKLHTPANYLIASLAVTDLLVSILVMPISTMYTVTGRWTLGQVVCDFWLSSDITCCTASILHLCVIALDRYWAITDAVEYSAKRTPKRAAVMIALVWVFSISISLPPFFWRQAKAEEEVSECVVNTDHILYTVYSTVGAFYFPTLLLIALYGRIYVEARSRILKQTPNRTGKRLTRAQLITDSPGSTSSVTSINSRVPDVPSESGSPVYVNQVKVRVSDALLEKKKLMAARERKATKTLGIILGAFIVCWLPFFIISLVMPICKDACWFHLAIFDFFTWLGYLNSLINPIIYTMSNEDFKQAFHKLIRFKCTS
Protocol: as §1

[12] = biological target: OPRL1 (Nociceptin 1 receptor) (Homo sapiens, UniProt P41146); assay: DiscoverX GPCR Max Panel screen; format: cell-based; conditions: VDM-001 at 30 μM; Assay Mode Antagonist
Chain of OPRL1 (Nociceptin 1 receptor) (P41146 whole entry): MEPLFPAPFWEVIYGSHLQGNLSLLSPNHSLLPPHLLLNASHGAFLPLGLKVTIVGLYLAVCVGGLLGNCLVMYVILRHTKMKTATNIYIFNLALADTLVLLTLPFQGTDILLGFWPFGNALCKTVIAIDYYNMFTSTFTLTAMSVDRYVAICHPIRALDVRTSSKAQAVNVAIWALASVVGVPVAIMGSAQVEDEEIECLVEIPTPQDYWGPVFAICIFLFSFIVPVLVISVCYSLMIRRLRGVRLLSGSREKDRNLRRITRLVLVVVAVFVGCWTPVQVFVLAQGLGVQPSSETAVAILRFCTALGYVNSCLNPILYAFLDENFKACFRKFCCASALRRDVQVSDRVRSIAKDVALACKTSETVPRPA
Protocol: as §1

[13] = biological target: OPRM1 (Mu Opiate receptor) (Homo sapiens, UniProt P35372); assay: DiscoverX GPCR Max Panel screen; format: cell-based; conditions: VDM-001 at 30 μM; Assay Mode Antagonist
Chain of OPRM1 (Mu Opiate receptor) (P35372 whole entry): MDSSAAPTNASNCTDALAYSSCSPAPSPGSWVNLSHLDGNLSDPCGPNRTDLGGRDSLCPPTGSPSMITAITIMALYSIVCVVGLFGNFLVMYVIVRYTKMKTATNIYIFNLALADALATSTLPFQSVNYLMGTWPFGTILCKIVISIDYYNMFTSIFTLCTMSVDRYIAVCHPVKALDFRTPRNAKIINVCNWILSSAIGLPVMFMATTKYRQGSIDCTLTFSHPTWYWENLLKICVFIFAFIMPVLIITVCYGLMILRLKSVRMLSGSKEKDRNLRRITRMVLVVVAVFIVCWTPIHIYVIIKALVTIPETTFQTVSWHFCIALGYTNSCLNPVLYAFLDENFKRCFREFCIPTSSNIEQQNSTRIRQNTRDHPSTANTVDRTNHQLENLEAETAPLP
Protocol: as §1

MOR = MOR (Homo sapiens, UniProt P35372); assay: GTPgS studies; format: biochemical; conditions: read-out: IC50 from the GTPgS studies
Chain of MOR (P35372 whole entry): as above

mu opioid receptors = mu opioid receptors (Homo sapiens, UniProt P35372); assay: Receptor activity profile (stated)
Chain of mu opioid receptors (P35372 whole entry): as above

kappa receptors = kappa receptors (Homo sapiens, UniProt P41145); assay: Receptor activity profile (stated)
Chain of kappa receptors (P41145 whole entry): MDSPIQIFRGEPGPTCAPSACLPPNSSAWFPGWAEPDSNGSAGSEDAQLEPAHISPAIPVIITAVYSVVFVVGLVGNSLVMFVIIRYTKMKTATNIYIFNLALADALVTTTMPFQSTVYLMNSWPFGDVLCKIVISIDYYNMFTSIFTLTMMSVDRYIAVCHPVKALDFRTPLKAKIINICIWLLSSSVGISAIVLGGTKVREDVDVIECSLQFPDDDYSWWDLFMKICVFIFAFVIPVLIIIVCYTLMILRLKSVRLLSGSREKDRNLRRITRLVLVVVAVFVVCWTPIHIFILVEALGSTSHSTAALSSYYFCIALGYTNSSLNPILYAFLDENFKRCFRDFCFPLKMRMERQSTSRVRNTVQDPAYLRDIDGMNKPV

ORL1 receptors = ORL1 receptors (Homo sapiens, UniProt P41146); assay: Receptor activity profile (stated)
Chain of ORL1 receptors (P41146 whole entry): as the sequence (P41146 whole entry) above

Sigma sites = assay: Receptor activity profile (stated)

For C=CCN1CC[C@]23c4c5ccc(O)c4O[C@H]2C(=O)CC[C@@]3(O)[C@H]1C5 [naloxone, 17-allyl-4,5a-epoxy-3,14-dihydroxymorphinan-6-one, reference compound], the incidence of diarrhea (morphine-dependent rats; 1 mg/kg) was “over 80%”, the opiate withdrawal signs (morphine-dependent rats; 1 mg/kg) was “large opiate withdrawal signs” and the opiate withdrawal signs (morphine-dependent rats; 1 mg/kg, listed as Naloxone) was “precipitated a large number of withdrawal signs”.
In the case of CCC(=O)NC1CC(C)N(CCc2ccccc2)CC1C (stereo not drawn) [VDM-001, N-[2,5-dimethyl-1-(2-phenylethyl)piperidin-4-yl]propanamide], the Activity [1] is reported as 84%, the Activity [2] is reported as 98% and the Activity [3] is reported as 104%. For the same compound, the Activity [4] was 72%, the Activity [5] was 85% and the Activity [6] was 72%. The Activity [7] was 74%, the Activity [8] was 75% and the Activity [9] was 99%. The Activity [10] was 73%, the Activity [11] was 60% and the Activity [12] was 54%. The Activity [13] was 87%, the IC50 (MOR) was 30 µM and the “mode of action at mu opioid receptors” value (mu opioid receptors) was “partial agonist”. For the same compound, the “mode of action at kappa receptors” value (kappa receptors) was “antagonist”, the “mode of action at ORL1 receptors” value (ORL1 receptors) was “antagonist” and the “mode of action at Sigma sites” value (Sigma sites) was “either agonist or antagonist activity”. The incidence of diarrhea (morphine-dependent rats; 20 mg/kg, equal to the control) was “around 1%”, the incidence of diarrhea (morphine-dependent rats; 40 mg/kg) was “less than 20%” and the opiate withdrawal signs (morphine-dependent rats; 20 or 40 mg/kg) was “minimal, if any, opiate withdrawal signs; also recorded: did not precipitate morphine withdrawal symptoms; also recorded: did not show significant withdrawal signs”.
